Reference: publication PMC11459966, “Oral pharmacokinetics and efficacy of oral phospholipid remdesivir nucleoside prodrugs against SARS-CoV-2 in mice” (Antimicrobial Agents and Chemotherapy, 2024)
Read-outs that look alike come from different tables or passages of the source.

How the values were obtained:
[1] = Cell viability assay (CellTiter-Glo), Vero-TMPRSS2; format: cell-based, African green monkey; settings: African green monkey, Vero-TMPRSS2 cells, 48 h incubation
Method: Cell viability assays (Table 1) were performed as previously described ([7]). Cells were cultured and seeded as per in vitro antiviral studies in opaque walled 96-well cell culture plates and incubated overnight for Huh7.5, A2T2-A549, and Vero-E6-TMPRSS2 cells and for 2 days for Calu-3 cells. Compounds or controls were added at the indicated concentrations in a total volume of 100 µL, and cells were incubated for 48 h. An equal volume of CellTiter-Glo reagent (Promega, Cat. #G7570) or CellTiter-Glo 2.0 reagent (Promega, Cat. #G9241) was added and mixed, and luminescence was recorded on a Veritas Microplate Luminometer (Turner BioSystems) or a Spark Multimode plate reader (Tecan) according to manufacturer instructions. Percent viability was normalized to DMSO controls, and CC50 values were derived from best fit curves calculated in Prism 10.

[2] = system: SARS-CoV-2 isolate USA-WA1/2020; settings: Vero-TMPRSS2
[3] = system: SARS-CoV-2 isolate USA-WA1/2020; assay: microbe, parasite or virus in culture
[4] = system: SARS-CoV-2 isolate USA-WA1/2020; assay: microbe, parasite or virus in culture; remark: listed apart in the source
[5] = Cell viability assay (CellTiter-Glo), Huh7.5; settings: human, Huh7.5 cells
[6] = Cell viability assay (CellTiter-Glo), A2T2-A549; settings: human, A2T2-A549 cells
[7] = Cell viability assay (CellTiter-Glo), Calu-3; settings: human, Calu-3 cells
[8] = system: SARS-CoV-2 isolate USA-WA1/2020; assay: microbe, parasite or virus in culture; format: cell-based; settings: Severe acute respiratory syndrome coronavirus 2; Calu-3 cells, 44–48 hpi
[9] = system: SARS-CoV-2 isolate USA-WA1/2020; settings: A2T2-A549
[10] = system: SARS-CoV-2 isolate USA-WA1/2020; assay: microbe, parasite or virus in culture; remark: listed apart in the source

N#C[C@@]1(c2ccc3c(N)ncnn23)O[C@H](CO)[C@@H](O)[C@H]1O [RVn, reference compound]
CC50 at 48 h [1]: > 100 µM
SI (CC50/EC50) [2]: >92
EC50 ([3]; Severe acute respiratory syndrome coronavirus 2, Huh7.5, read-out: EC50 μM ± SD): 1.36 ± 0.544 µM
EC90 ([3]; Severe acute respiratory syndrome coronavirus 2, Huh7.5, read-out: EC90 μM ± SD): 2.96 ± 0.866 µM
EC50 ([4]; Severe acute respiratory syndrome coronavirus 2, Vero/TMPRSS2, read-out: EC50 μM ± SD): 1.08 ± 0.264 µM
EC90 ([4]; Severe acute respiratory syndrome coronavirus 2, Vero/TMPRSS2, read-out: EC90 μM ± SD): 2.43 ± 0.692 µM
CC50 at 48 h [5]: > 100 µM
CC50 at 48 h [6]: > 100 µM
CC50 at 48 h [7]: > 100 µM
EC50 [8]: 0.665 ± 0.284 µM
EC90 [8]: 1.89 ± 0.497 µM
SI (CC50/EC50) [9]: >33
EC50 ([10]; Severe acute respiratory syndrome coronavirus 2, read-out: EC50 μM ± SD): 3.01 ± 0.038 µM
EC90 ([10]; Severe acute respiratory syndrome coronavirus 2, read-out: EC90 μM ± SD): 4.49 ± 0.256 µM
